# From patent publication US7632825B2, “Methods of decreasing or preventing pain using spicamycin derivatives” (Bayer Pharmaceuticals Corporation, priority 2000, dated 2009)
# Assays:
# [1] = compared with KRN5500; cited from earlier work
# [2] = test system: primary afferent-evoked excitatory postsynaptic currents (EPSCs) from lamina II; assay: Electrophysiological recording of primary afferent-evoked EPSCs in lumbar spinal cord slices from spared-nerve injury animals; format: cell-based
# Description: Electrophysiological recordings were done on 650 μm thick transverse slices of lumbar spinal cord (from spared-nerve injury animals) with attached L4 dorsal root that were perfused with ice cold Krebs' solution ([in mM]: NaCl 117, KCl 3.6, CaCl2 2.5, MgCl2 1.2, NaH2PO4 1.2, NaHCO3 25 and glucose 11) saturated with 95% O2 and 5% CO2. To record primary afferent-evoked excitatory postsynaptic currents (EPSCs) from lamina II, whole cells were patch-clamped and then voltage-clamped at −70 mV. Orthodromicstimulation of L4 dorsal root was performed with a suction electrode attached to a constant current stimulator and graded intensity stimulation sufficient to recruit different afferent populations (Aβ, Aδ, and C-fibers) was used. Resistance of patch pipettes were 5-10 MW when filled with (in mM): Cs2SO4 110, CaCl2 0.5, MgCl2 2, EGTA 5, HEPES 5, TEA 5, ATP-Mg salt 5. Currents were amplified (Axopatch 200A), filtered at 2 kHz, digitized at 5 kHz and analyzed using pCLAMP 6 (Axon Instruments). SAN-Gly was dissolved in ice cold KREBs and bath-applied at two concentrations ([…]). […] In addition, as expected, the same concentration of SAN had no effect.
# Male Sprague-Dawley rats = assay: Mechanical allodynia (von Frey filaments) in rat segmental spinal nerve injury and chronic constriction nerve injury models, results combined; format: in vivo; conditions: single injection
# Method: Male Sprague-Dawley rats (Charles River Laboratories) weighing 150-200 g were used to evaluate the analgesic properties of the SAN-Gly formulation. The animals were housed in groups of three in plastic cages with soft bedding and under a 12 hour light/dark cycle. Food and water were available ad libitum. After one week of acclimatization to the laboratory conditions, all animals were tested to establish a baseline mechanical allodynia.
# Since different animal models of pain can provide different experimental results, SAN-Gly was tested using two rat models. All experiments were performed in a single-blinded fashion, i.e., the experimenter was not aware of which rats received the control saline and which rats received the SAN-Gly formulation.
# One rat model used was based on an experimentally produced segmental spinal nerve injury (Kim et al., Pain 50:355-363, 1992). One week after the acclimatization to laboratory conditions, baseline measurements were recorded and surgery was performed as described in Kim et al., supra. Rats were anesthetized with halothane in oxygen and placed in a prone position. A midline skin incision at L4-S2 was made, and paraspinal muscles were separated from the spinous processes in the L4-S2 region. […]
# The rats were allowed to recover from surgery for at least a week. […] Both groups were then monitored for allodynia at various time points after surgery. […]
# [3] = 100 mM bath-applied, whole-cell patch clamp at -70 mV, observed in three out of five cells
smiles,measurement,setting,value
"NCC(=O)N[C@@H]1[C@@H](O)[C@@H](O)[C@@H](Nc2ncnc3[nH]cnc23)O[C@H]1[C@@H](O)CO [SAN-Gly, 4′-N-glycyl spicamycin amino nucleoside]",cytotoxicity relative to water-insoluble spicamycin derivatives such as KRN5500,[1],less cytotoxic
same,amplitude of EPSCs,[2]; [3],reduced the amplitude
same,latency of EPSCs,[2]; [3],increased the latency
same,effect on EPSCs upon washout of the drug,[2]; after 100 mM bath application,reversed upon washout
same,recovery towards baseline pain behavior,"Male Sprague-Dawley rats; 100 mg/kg body weight, single bolus in the tail vein, both animal models combined (FIG. 1)",60%
same,persistence of increased pain tolerance,"Male Sprague-Dawley rats; 100 mg/kg, tail vein, days after surgery as printed, both models combined",at least 7 days
